Tests used:
[1] = target: RAF proto-oncogene serine/threonine-protein kinase (Homo sapiens, UniProt P04049); assay: Inhibition of human c-RAF at 10 uM using MEK1 as substrate in presence of [33P]ATP by Hotspot assay relative to control
[2] = test system: M14; assay: Growth inhibition of human M14 cells incubated for 48 hrs by sulforhodamine B assay; format: functional; conditions: M14, 48 h
[3] = test system: HOP-62; assay: Growth inhibition of human HOP62 cells incubated for 48 hrs by sulforhodamine B assay; format: functional; conditions: HOP-62, 48 h
[4] = test system: BT-549; assay: Growth inhibition of human BT549 cells incubated for 48 hrs by sulforhodamine B assay; format: functional; conditions: BT-549, 48 h
[5] = test system: HL-60(TB); assay: Growth inhibition of human HL-60(TB) cells incubated for 48 hrs by sulforhodamine B assay; format: functional; conditions: HL-60, 48 h
[6] = test system: OVCAR-4; assay: Growth inhibition of human OVCAR4 cells incubated for 48 hrs by sulforhodamine B assay; format: functional; conditions: OVCAR-4, 48 h
[7] = test system: 786-0; assay: Growth inhibition of human 786-0 cells incubated for 48 hrs by sulforhodamine B assay; format: functional; conditions: 786-0, 48 h
[8] = test system: EKVX; assay: Growth inhibition of human EKVX cells incubated for 48 hrs by sulforhodamine B assay; format: functional
[9] = test system: SNB-75; assay: Growth inhibition of human SNB75 cells incubated for 48 hrs by sulforhodamine B assay; format: functional; conditions: SNB-75, 48 h
[10] = test system: NCI-H226; assay: Growth inhibition of human NCI-H226 cells incubated for 48 hrs by sulforhodamine B assay; format: functional; conditions: NCI-H226, 48 h
[11] = test system: DU-145; assay: Growth inhibition of human DU145 cells incubated for 48 hrs by sulforhodamine B assay; format: functional; conditions: DU-145, 48 h
[12] = test system: CCRF-CEM; assay: Growth inhibition of human CCRF-CEM cells incubated for 48 hrs by sulforhodamine B assay; format: functional
[13] = test system: PC-3; assay: Growth inhibition of human PC3 cells incubated for 48 hrs by sulforhodamine B assay; format: functional; conditions: PC-3, 48 h
[14] = test system: ACHN; assay: Growth inhibition of human ACHN cells incubated for 48 hrs by sulforhodamine B assay; format: functional
[15] = test system: Hs-578T; assay: Growth inhibition of human Hs 578T cells incubated for 48 hrs by sulforhodamine B assay; format: functional
[16] = test system: SK-MEL-2; assay: Growth inhibition of human SK-MEL-2 cells incubated for 48 hrs by sulforhodamine B assay; format: functional; conditions: SK-MEL-2, 48 h
[17] = test system: RXF 393; assay: Growth inhibition of human RXF393 cells incubated for 48 hrs by sulforhodamine B assay; format: functional; conditions: RXF 393, 48 h
[18] = test system: HCC 2998; assay: Growth inhibition of human HCC2998 cells incubated for 48 hrs by sulforhodamine B assay; format: functional; conditions: HCC 2998, 48 h
[19] = test system: LOX IMVI; assay: Growth inhibition of human LOXIMVI cells incubated for 48 hrs by sulforhodamine B assay; format: functional
[20] = test system: Malme-3M; assay: Growth inhibition of human MALME-3M cells incubated for 48 hrs by sulforhodamine B assay; format: functional
[21] = test system: HCT-15; assay: Growth inhibition of human HCT15 cells incubated for 48 hrs by sulforhodamine B assay; format: functional; conditions: HCT-15, 48 h
[22] = test system: SK-MEL-5; assay: Growth inhibition of human SK-MEL-5 cells incubated for 48 hrs by sulforhodamine B assay; format: functional; conditions: SK-MEL-5, 48 h
[23] = test system: SR; assay: Growth inhibition of human SR cells incubated for 48 hrs by sulforhodamine B assay; format: functional
[24] = test system: SN12C; assay: Growth inhibition of human SN12C cells incubated for 48 hrs by sulforhodamine B assay; format: functional
[25] = test system: OVCAR-3; assay: Growth inhibition of human OVCAR3 cells incubated for 48 hrs by sulforhodamine B assay; format: functional; conditions: OVCAR-3, 48 h
[26] = test system: SNB-19; assay: Growth inhibition of human SNB19 cells incubated for 48 hrs by sulforhodamine B assay; format: functional; conditions: SNB-19, 48 h
[27] = test system: UO-31; assay: Growth inhibition of human UO31 cells incubated for 48 hrs by sulforhodamine B assay; format: functional; conditions: UO-31, 48 h
[28] = test system: HT-29; assay: Growth inhibition of human HT-29 cells incubated for 48 hrs by sulforhodamine B assay; format: functional; conditions: HT-29, 48 h
[29] = test system: T47D; assay: Growth inhibition of human T47D cells incubated for 48 hrs by sulforhodamine B assay; format: functional
[30] = test system: A498; assay: Growth inhibition of human A498 cells incubated for 48 hrs by sulforhodamine B assay; format: functional; conditions: A498, 48 h
[31] = test system: UACC-62; assay: Growth inhibition of human UACC62 cells incubated for 48 hrs by sulforhodamine B assay; format: functional; conditions: UACC-62, 48 h
[32] = test system: KM12; assay: Growth inhibition of human KM12 cells incubated for 48 hrs by sulforhodamine B assay; format: functional; conditions: KM12, 48 h
[33] = test system: RPMI-8226; assay: Growth inhibition of human RPMI8226 cells incubated for 48 hrs by sulforhodamine B assay; format: functional; conditions: RPMI-8226, 48 h
[34] = read-out: LC50 (the source's name)

Chain of RAF proto-oncogene serine/threonine-protein kinase (P04049 whole entry): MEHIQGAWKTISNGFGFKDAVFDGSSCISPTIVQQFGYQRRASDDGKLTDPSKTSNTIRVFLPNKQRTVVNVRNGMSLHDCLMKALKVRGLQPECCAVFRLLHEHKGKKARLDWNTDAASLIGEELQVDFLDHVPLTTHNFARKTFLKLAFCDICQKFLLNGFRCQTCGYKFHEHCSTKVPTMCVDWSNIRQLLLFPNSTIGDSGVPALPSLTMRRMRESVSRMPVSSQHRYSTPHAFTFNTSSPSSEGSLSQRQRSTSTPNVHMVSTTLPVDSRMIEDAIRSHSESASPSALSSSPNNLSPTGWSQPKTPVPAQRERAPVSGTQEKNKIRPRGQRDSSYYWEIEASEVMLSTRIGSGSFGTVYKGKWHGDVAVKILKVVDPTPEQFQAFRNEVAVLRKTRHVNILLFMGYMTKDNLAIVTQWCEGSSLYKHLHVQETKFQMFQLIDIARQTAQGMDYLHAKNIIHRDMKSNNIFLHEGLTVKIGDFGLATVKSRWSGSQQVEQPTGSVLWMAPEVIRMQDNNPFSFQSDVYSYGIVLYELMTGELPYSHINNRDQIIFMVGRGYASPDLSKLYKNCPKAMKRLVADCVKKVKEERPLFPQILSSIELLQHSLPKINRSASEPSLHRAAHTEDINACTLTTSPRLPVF

Structure (SMILES): COc1cc2cc(Oc3ccc(NC(=O)Nc4ccc(Cl)c(Cl)c4)cc3)c(C)nc2cc1OC
- inhibition [1]: 97.8%
- GI50 [2]: 2.56 µM
- TGI [2]: 10.5 µM
- CC50 [2, 34]: 34.7 µM
- GI50 [3]: 3.55 µM
- TGI [3]: 11.9 µM
- CC50 [3, 34]: 34.4 µM
- GI50 [4]: 2.4 µM
- TGI [4]: 11.7 µM
- CC50 [4, 34]: 51.6 µM
- GI50 [5]: 2.76 µM
- TGI [5]: 6.75 µM
- CC50 [5, 34]: > 100 µM
- GI50 [6]: 2.67 µM
- TGI [6]: 8.3 µM
- CC50 [6, 34]: 35.2 µM
- GI50 [7]: 3.64 µM
- TGI [7]: 17.7 µM
- CC50 [7, 34]: 65.2 µM
- GI50 [8]: 2.36 µM
- LC50 (concentration killing 50% of cells) [8]: > 100 µM
- TGI [8]: 9.51 µM
- GI50 [9]: 2.33 µM
- TGI [9]: 8.28 µM
- CC50 [9, 34]: 66.1 µM
- GI50 [10]: 3.12 µM
- TGI [10]: 8.68 µM
- CC50 [10, 34]: 35.8 µM
- GI50 [11]: 4.27 µM
- TGI [11]: 17.1 µM
- CC50 [11, 34]: 68.4 µM
- GI50 [12]: 2.38 µM
- TGI [12]: 14 µM
- CC50 [12, 34]: > 100 µM
- GI50 [13]: 1.53 µM
- TGI [13]: 5.13 µM
- CC50 [13, 34]: 21.3 µM
- GI50 [14]: 3 µM
- TGI [14]: 12.1 µM
- CC50 [14, 34]: 69.1 µM
- GI50 [15]: 3.53 µM
- TGI [15]: 9.68 µM
- CC50 [15, 34]: > 100 µM
- GI50 [16]: 3 µM
- TGI [16]: 6.55 µM
- CC50 [16, 34]: 20.6 µM
- GI50 [17]: 4.28 µM
- TGI [17]: 16.7 µM
- CC50 [17, 34]: 65.7 µM
- GI50 [18]: 5.54 µM
- TGI [18]: > 100 µM
- CC50 [18, 34]: > 100 µM
- GI50 [19]: 3.45 µM
- TGI [19]: 14.6 µM
- CC50 [19, 34]: 38.2 µM
- GI50 [20]: 3.02 µM
- TGI [20]: 7.72 µM
- CC50 [20, 34]: 26.7 µM
- GI50 [21]: 3.56 µM
- LC50 (lethal concentration, 50% net cell kill) [21]: > 100 µM
- TGI [21]: > 100 µM
- GI50 [22]: 2.58 µM
- TGI [22]: 8.09 µM
- CC50 [22, 34]: 30.8 µM
- GI50 [23]: 3.1 µM
- TGI [23]: 10.3 µM
- CC50 [23, 34]: > 100 µM
- GI50 [24]: 3.39 µM
- TGI [24]: 20.5 µM
- CC50 [24, 34]: > 100 µM
- GI50 [25]: 2.34 µM
- TGI [25]: 6.19 µM
- CC50 [25, 34]: 22.2 µM
- GI50 [26]: 4.26 µM
- TGI [26]: 24 µM
- CC50 [26, 34]: > 100 µM
- GI50 [27]: 3.44 µM
- TGI [27]: 12.6 µM
- CC50 [27, 34]: 79.6 µM
- GI50 [28]: 2.34 µM
- TGI [28]: 4.89 µM
- CC50 [28, 34]: 10.6 µM
- GI50 [29]: 2.7 µM
- TGI [29]: 10.1 µM
- CC50 [29, 34]: 84.7 µM
- GI50 [30]: 1.95 µM
- TGI [30]: 7.93 µM
- CC50 [30, 34]: 74.9 µM
- GI50 [31]: 3.33 µM
- TGI [31]: 19.2 µM
- CC50 [31, 34]: 71.2 µM
- GI50 [32]: 3.22 µM
- TGI [32]: 13.4 µM
- CC50 [32, 34]: 74.7 µM
- GI50 [33]: 1.62 µM
- LC50 (lethal concentration, 50% cell kill) [33]: > 100 µM
- TGI [33]: 5.73 µM

Reference: ChEMBL document CHEMBL3994622, “Design and synthesis of new RAF kinase-inhibiting antiproliferative quinoline derivatives. Part 2: Diarylurea derivatives” (Eur J Med Chem, 2017)
